Test results taken from patent US20170044232A1, “MUTANT SMOOTHENED AND METHODS OF USING THE SAME” (GENENTECH, INC., priority 2014, published 2017).
Entries after “also recorded” stand apart in the source; their conditions may differ.

How the values were obtained:
[1] = system: PPT CGNPs expressing vismodegib-resistant SMO mutants; assay: PPT CGNP proliferation, methyl-[3H]-thymidine incorporation; format: cell-based, mice; conditions: 1 μM JQ1 (FIG. 16B)
Source text: (§1) It has previously been noted that Hh-driven tumor cells rapidly lose their Hh pathway dependence during culturing (Sasai et al., 2006). However, CGNPs proliferate in vivo in a Hh dependent manner and maintain their Hh pathway dependence in culture for a finite period (Wechsler-Reya and Scott, 1999). CGNPs isolated from Ptch1loxp/loxp Tp53loxp/loxp Rosa26LSL-tdTomato (PPT) pups were infected with lentiviral constructs expressing a SMO variant together with an enhanced green fluorescent protein (eGFP)-Cre fusion protein (FIG. 12C). The Cre recombinase induces loss of Ptch1 and thus ensures that only transduced CGNPs can proliferate in the absence of exogenous Sonic hedgehog ligand (SHH; FIG. 11D). […] Proliferation by methyl-[3H]-thymidine incorporation was monitored, while Cre-dependent tandem dimer (td) Tomato expression enabled visualization and quantification of infected cells.
(§2) SMO mutants were generated in pRK5-SMO vectors as described (Dijkgraaf et al., 2011; Yauch et al., 2009) and were either utilized in Gli-luciferase reporter assays as described (Dijkgraaf et al., 2011) or cloned into lentiviral vectors for transduction of primary CGNP cultures. Proliferation was assayed using methyl-[3H]-thymidine incorporation (Kool et al., 2014).
(§3) Cerebella from post-natal day 5-7 Ptch1^loxp/loxp Rosa26^LSL.tdTomato Tp53^loxp/loxp mice were dissociated in 0.05% Trypsin for 10 min at 37° C. Cells were collected by centrifugation at 514×g for 10 min at 4° C., resuspended in CGNP media (Neurobasal medium (Life Technologies) containing 1×B27 (without vitamin A; Life Technologies), 0.45% glucose (Sigma Aldrich), 25 mM KCl, 0.4% bovine serum albumin (Sigma Aldrich), 2 mM glutamine, 100 U/ml Penicillin (Life Technologies), 100 μg/ml Streptomycin (Life Technologies), 200 ng/ml octylated recombinant SHH) and filtered through a 0.45 μm filter (Falcon). Cells were plated in poly-D-lysine coated 6-well plates (Corning) at 5×10E5 cells/well and infected with lentivirus at a multiplicity of infection (MOI) of 1. After 24 hr, cells were harvested by trypsinization, collected in CGNP media and replated for downstream applications.
(§4) To examine the effects of HPIs on proliferation, virally transduced CGNPs were plated in poly-D-lysine-coated 96-well plates (Corning) at 25,000 cells/well in CGNP media without SHH. […] After 24 hr, cells were pulsed with 1 μCi/ml methyl-[^3H]-thymidine (Amersham/GE Healthcare) and cultured for an additional 16-24 hr. Cells were harvested onto 96-well filter plates (Perkin Elmer) using a Filtermate Cell Harvester (Perkin Elmer), and incorporated radioactivity was quantified by liquid scintillation spectrophotometry on a TopCount NXT (PerkinElmer).

SMO-A459V = target: T1, SMO-A459V (Homo sapiens, UniProt Q99835, A459V); assay: Gli-luciferase based Hh reporter assay; format: cell-based; conditions: C3H10T½ cells
T1 construct: expressed in transfected cells; host or cells: C3H10T1/2 cells
T1 sequence (Q99835 28-787 A459V): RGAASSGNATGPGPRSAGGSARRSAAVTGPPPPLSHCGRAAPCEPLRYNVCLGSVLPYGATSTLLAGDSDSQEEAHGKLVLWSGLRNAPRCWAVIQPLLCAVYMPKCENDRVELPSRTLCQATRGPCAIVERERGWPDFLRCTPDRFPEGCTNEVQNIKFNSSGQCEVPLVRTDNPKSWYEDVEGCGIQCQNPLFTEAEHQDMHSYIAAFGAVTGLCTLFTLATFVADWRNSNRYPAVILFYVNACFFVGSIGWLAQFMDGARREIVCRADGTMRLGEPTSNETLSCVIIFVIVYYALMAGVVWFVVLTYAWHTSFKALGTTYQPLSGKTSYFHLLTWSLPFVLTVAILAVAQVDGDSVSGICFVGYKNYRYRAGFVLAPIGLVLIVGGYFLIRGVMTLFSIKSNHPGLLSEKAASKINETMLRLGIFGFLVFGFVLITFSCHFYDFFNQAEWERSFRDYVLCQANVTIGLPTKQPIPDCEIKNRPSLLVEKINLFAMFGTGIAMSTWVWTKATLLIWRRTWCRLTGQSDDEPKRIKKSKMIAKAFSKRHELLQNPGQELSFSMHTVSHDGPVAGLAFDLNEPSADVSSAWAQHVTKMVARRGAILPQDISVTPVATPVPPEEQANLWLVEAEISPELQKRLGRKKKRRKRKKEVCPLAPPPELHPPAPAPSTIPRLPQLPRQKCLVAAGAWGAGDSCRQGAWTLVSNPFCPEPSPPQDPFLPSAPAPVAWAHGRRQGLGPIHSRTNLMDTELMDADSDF
Method: as §2
C3H10T½ cells (ATCC) were seeded into six-well plates at 1.75×10E5 cells/well in DMEM High Glucose with 4 mM glutamine, 10 mM Hepes pH 7.2 and 10% FBS. After 16 h cells were transfected with 400 ng of expression construct, 400 ng of 9×-Gli-BS and 200 ng of pRL-TK per well using GeneJuice Transfection Reagent (Novagen). For the PTCH1 inhibition experiments, cells were transfected with 200 ng SMO expression construct and an additional 200 ng of DNA containing varying ratios of PTCH1 to empty vector. Six hours later, cells from one well were trypsinized and redistributed over four wells of a 12-well plate. After 16 hours the FBS content of the culture medium was reduced to 0.5% to induce formation of primary cilia, and small molecule Hh inhibitors were added at indicated concentrations. Firefly luciferase activity was determined 24 hours later with the Dual-Glo Luciferase Assay System (Promega) and read using a Wallac EnVision plate reader (Perkin Elmer). […]

[2] = system: PPT CGNPs infected with SMO DBP mutants; assay: PPT CGNP proliferation, methyl-[3H]-thymidine incorporation; format: cell-based, mice; conditions: all DBP mutations; >1 μM vismodegib (FIG. 12D)
Source text: as §1, §2, §3, §4

[3] = system: SMO-A459V expressing CGNPs; assay: as above; format: cell-based, mice; conditions: SMO-A459V (FIG. 15D)
Source text: as §1, §2, §3, §4

[4] = system: SMOW535L expressing CGNPs; assay: as above; format: cell-based, mice; conditions: SMOW535L (FIG. 15D)
Source text: as §1, §2, §3, §4

SMO L515A = SMO L515A (Homo sapiens, UniProt Q99835, L515A); conditions: 1 mM vismodegib; cited from earlier work
Chain of SMO L515A (Q99835 28-787 L515A): as the sequence (Q99835 28-787 A459V) above, with V432A, L488A counted along it

SMO E518K = SMO E518K (Homo sapiens, UniProt Q99835, E518K); conditions: cited from earlier work
Chain of SMO E518K (Q99835 28-787 E518K): as the sequence (Q99835 28-787 A459V) above, with V432A, E491K counted along it

SMO E518A = SMO E518A (Homo sapiens, UniProt Q99835, E518A); conditions: cited from earlier work
Chain of SMO E518A (Q99835 28-787 E518A): as the sequence (Q99835 28-787 A459V) above, with V432A, E491A counted along it

advanced BCC = conditions: majority of patients; complete and partial responses (Sekulic et al., 2012); cited from earlier work

Row | SMILES | proliferation in the presence of JQ1 [1] | sensitivity to inhibition by vismodegib (SMO-A459V) | proliferation at high levels of vismodegib [2] | proliferation at high concentrations of vismodegib [3] | proliferation at high concentrations of vismodegib [4] | sensitivity to inhibition by vismodegib (SMO L515A) | sensitivity to vismodegib (SMO E518K) | sensitivity to vismodegib (SMO E518A) | clinical outcome of BCC patients treated with vismodegib (advanced BCC)
1 | Cc1sc2c(c1C)C(c1ccc(Cl)cc1)=N[C@@H](CC(=O)OC(C)(C)C)c1nnc(C)n1-2 [JQ1] | reduced proliferation | – | – | – | – | – | – | – | –
2 | CS(=O)(=O)c1ccc(C(=O)Nc2ccc(Cl)c(-c3ccccn3)c2)c(Cl)c1 [vismodegib] | – | decreased sensitivity; also recorded: reduced sensitivity | continuing to proliferate | continued to proliferate | continued to proliferate | activating, sensitive | reduced sensitivity to | reduced sensitivity to | clinical benefit
